{"source": "BindingDB's records for doi:10.1021/acs.jmedchem.7b00076", "about": "(University of Chinese Academy of Sciences, 2017)", "key": {"[1]": {"experiment": "Inhibition of TEL-fused KDR (unknown origin) expressed in mouse Ba/F3 cells assessed as inhibition of cell proliferation after 72 hrs by cell counting kit-8 assay"}, "[2]": {"experiment": "Inhibition of CCDC6-fused RET (unknown origin) expressed in mouse Ba/F3 cells assessed as inhibition of cell proliferation after 72 hrs by cell counting kit-8 assay"}, "[3]": {"experiment": "Inhibition of FGFR1OP2 fused FGFR1 in human KG1 cells assessed as inhibition of cell proliferation after 72 hrs by cell counting kit-8 assay"}, "[4]": {"experiment": "Inhibition of FGFR1 in human NCI-H1581 cells assessed as inhibition of cell proliferation after 72 hrs by cell counting kit-8 assay"}}, "note": "pIC50: −log10 of the molar value.", "data": [{"smiles": "Cc1n[nH]c2ccc(-c3cc(N[C@@H](CO)c4ccccc4)cnc3-c3cc(F)ccc3O)cc12", "values": [{"measurement": "pIC50", "setting": "[1]", "result": 8.01}, {"measurement": "pIC50", "setting": "[2]", "result": 6.50}, {"measurement": "pIC50", "setting": "[3]", "result": 7.82}, {"measurement": "pIC50", "setting": "[4]", "result": 6.41}]}]}
